Our source for the EC50 and IC50 values is patent US20230233569A1 (Revolution Medicines, Inc., priority 2020, published 2023).

pEC50, pIC50: −log10 of the molar value. Where “and” joins values, the source holds several entries; their conditions need not be identical. Equal values may be shown once. Read-outs that look alike come from different tables or passages of the source. Where only a bound is given, the exact number is not on record here.

Experiment [1] concerns K-Ras G12C (NCI-H358 cells). As to the kind of experiment: Potency assay: pERK (AlphaLISA SureFire or In-Cell Western). Type of experiment: cell-based. Particulars: Homo sapiens. The method, then:
(§1) The purpose of this assay is to measure the ability of test compounds to inhibit K-Ras in cells. […] This procedure measures a decrease in cellular pERK in response to test compounds.
(§2) NCI-H358 cells were grown and maintained using media and procedures recommended by the ATCC. On the day prior to compound addition, cells were plated in 384-well cell culture plates (40 μl/well) and grown overnight in a 37° C., 5% CO2 incubator. Test compounds were prepared in 10, 3-fold dilutions in DMSO, with a high concentration of 10 mM. On the day of assay, 40 nL of test compound was added to each well of cell culture plate using an Echo550 liquid handler (LabCyte®). Concentrations of test compound were tested in duplicate. After compound addition, cells were incubated 4 hours at 37° C., 5% CO2. Following incubation, culture medium was removed and cells were washed once with phosphate buffered saline.
(§3) In some experiments, cellular pERK level was determined using the AlphaLISA SureFire Ultra p-ERK1/2 Assay Kit (PerkinElmer). Cells were lysed in 25 μL lysis buffer, with shaking at 600 RPM at room temperature. […] After a 2-hour incubation in the dark, 5 μL donor mix was added, plate was sealed, and incubated 2 hours at room temperature. Signal was read on an Envision plate reader (PerkinElmer) using standard AlphaLISA settings. Analysis of raw data was carried out in Excel (Microsoft) and Prism (GraphPad). Signal was plotted vs. the decadal logarithm of compound concentration, and IC50 was determined by fitting a 4-parameter sigmoidal concentration response model.
In other experiments, cellular pERK was determined by In-Cell Western. […] Fixed cells were washed 4 times for 5 minutes with TBS containing 0.1% Triton X-100 (TBST) and then blocked with 100 μL Odyssey blocking buffer (LI-COR) for 60 minutes at room temperature. […] Cells were washed 4 times for 5 minutes with TBST. Secondary antibody (IR-800CW rabbit, LI-COR, diluted 1:800) and DNA stain DRAQ5 (LI-COR, diluted 1:2000) were added and incubated 1-2 hours at room temperature. Cells were washed 4 times for 5 minutes with TBST. Plates were scanned on a LI-COR Odyssey CLx Imager. Analysis of raw data was carried out in Excel (Microsoft) and Prism (GraphPad). Signal was plotted vs. the decadal logarithm of compound concentration, and IC50 was determined by fitting a 4-parameter sigmoidal concentration response model.
as §1
as §2, with “mM. On day of” for “mM. On the day of”, “assay, 40 nl of test” for “assay, 40 nL of test”
as §3, with “μl” for “μL”, “sealed” for “sealed,”

Experiment [2] deals with NCI-H358 (K-Ras G12C). As to the kind of experiment: CellTiter-Glo cell viability assay, 5-day treatment. It is filed as cell-based. Particulars: Homo sapiens; for pIC50: NCI-H358, H358, K-Ras G12C, read-out: Additional H358 Cell Viability assay data (K-Ras G12C, IC50). The method in brief: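 Five-day compound treatment of plated cells; luminescent read after ~30 min at RT. Percent-of-DMSO data fit to a four-parameter logistic model.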

The target in experiment [3] is KRAS G12C (Homo sapiens, UniProt P01116+P62937, G12C). As to the kind of experiment: Disruption of BRAF RBD interaction with Ras (FRET / MOA assay, with Cyclophilin A). It is filed as biochemical. The following applies: KRAS G12C; read-out: KRAS G12C FRET data IC50. The method, boiled down: (§4)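 IC50 values reflect loss of K-Ras binding to BRAF RBD, read as a lowered TR-FRET ratio compared with DMSO, driven by compound-mediated K-Ras:Cyclophilin A complex formation. Compound top dose 30 μM final, 3-fold steps, 3 h incubation at 25 °C before a 1.5 h antibody step.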

Experiment [4] concerns the target KRAS G12D (Homo sapiens, UniProt P01116+P62937, G12D). The description is as above. It is filed as biochemical. Particulars: read-out: KRAS G12D FRET data, IC50. The method in brief: as §4
Experiment [5] concerns the target KRAS G12S (Homo sapiens, UniProt P01116+P62937, G12S). The experiment is described as above. Type of experiment: biochemical. The following applies: read-out: KRAS G12S FRET data, IC50. The method in brief:
as §4

In experiment [6] the target is KRAS G12V (Homo sapiens, UniProt P01116+P62937, G12V). Described as above. It is filed as biochemical. Particulars: KRAS G12V; read-out: KRAS G12V FRET data IC50. The method, boiled down: as §4
Experiment [7] concerns the target KRAS G13C (Homo sapiens, UniProt P01116+P62937, G13C). The description is as above. It is filed as biochemical. The following applies: KRAS G13C; read-out: KRAS G13C FRET data IC50. The method, boiled down:
as §4

The target in experiment [8] is KRAS G13D (Homo sapiens, UniProt P01116+P62937, G13D). The experiment is described as above. Type of experiment: biochemical. The following applies: KRAS G13D; read-out: KRAS G13D FRET data IC50. The method in brief: as §4
Experiment [9] addresses KRAS WT (Homo sapiens, UniProt P01116+P62937). The experiment is described as above. The following applies: KRAS WT; read-out: KRAS WT FRET data IC50. Type of experiment: biochemical. The method in brief: as §4
The target in experiment [10] is NRAS G12C (Homo sapiens, UniProt P01111+P62937, G12C). The description is as above. Type of experiment: biochemical. Particulars: NRAS G12C; read-out: NRAS G12C FRET data IC50.
[11] abbreviates: NCI-H358, H358 KRAS G12C, read-out: pERK EC50.

Sequence of KRAS G13C (P01116 1-169 isoform P01116-2 G13C): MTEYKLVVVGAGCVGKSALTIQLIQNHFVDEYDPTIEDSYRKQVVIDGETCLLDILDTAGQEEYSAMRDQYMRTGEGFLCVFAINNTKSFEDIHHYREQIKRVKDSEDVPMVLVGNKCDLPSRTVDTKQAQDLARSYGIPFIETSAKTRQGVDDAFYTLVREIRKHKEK
Sequence of KRAS G13C (P62937 whole entry): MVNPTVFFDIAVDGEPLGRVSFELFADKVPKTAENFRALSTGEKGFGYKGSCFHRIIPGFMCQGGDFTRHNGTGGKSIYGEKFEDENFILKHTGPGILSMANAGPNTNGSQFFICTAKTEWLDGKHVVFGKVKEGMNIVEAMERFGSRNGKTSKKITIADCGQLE
Sequence of KRAS G12C (P01116 1-169 isoform P01116-2 G12C): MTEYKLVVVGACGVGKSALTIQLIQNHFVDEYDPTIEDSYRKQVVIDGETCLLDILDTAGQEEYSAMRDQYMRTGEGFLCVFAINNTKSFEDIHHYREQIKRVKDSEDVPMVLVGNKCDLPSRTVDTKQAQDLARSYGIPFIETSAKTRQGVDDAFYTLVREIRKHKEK
Sequence of KRAS G12C (P62937 whole entry): as the sequence (P62937 whole entry) above
Sequence of KRAS G12D (P01116 1-169 isoform P01116-2 G12D limits assumed): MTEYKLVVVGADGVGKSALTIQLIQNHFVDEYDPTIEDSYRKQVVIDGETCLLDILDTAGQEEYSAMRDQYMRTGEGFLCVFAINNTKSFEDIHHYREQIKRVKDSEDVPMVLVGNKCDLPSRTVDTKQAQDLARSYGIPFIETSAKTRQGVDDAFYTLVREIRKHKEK
Sequence of KRAS G12D (P62937 whole entry): as the sequence (P62937 whole entry) above
Sequence of KRAS G13D (P01116 1-169 isoform P01116-2 G13D limits assumed): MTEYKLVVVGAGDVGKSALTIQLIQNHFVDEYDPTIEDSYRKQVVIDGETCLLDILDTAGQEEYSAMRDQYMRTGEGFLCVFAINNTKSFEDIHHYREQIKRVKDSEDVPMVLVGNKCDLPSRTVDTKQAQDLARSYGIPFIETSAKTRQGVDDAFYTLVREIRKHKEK
Sequence of KRAS G13D (P62937 whole entry): as the sequence (P62937 whole entry) above
Sequence of KRAS G12V (P01116 1-169 isoform P01116-2 G12V limits assumed): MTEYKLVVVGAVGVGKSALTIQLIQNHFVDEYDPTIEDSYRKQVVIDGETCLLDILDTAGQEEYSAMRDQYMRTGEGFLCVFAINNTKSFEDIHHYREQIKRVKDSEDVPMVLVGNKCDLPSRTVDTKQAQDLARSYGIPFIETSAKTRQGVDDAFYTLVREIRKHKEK
Sequence of KRAS G12V (P62937 whole entry): as the sequence (P62937 whole entry) above
Sequence of NRAS G12C (P01111 whole entry G12C): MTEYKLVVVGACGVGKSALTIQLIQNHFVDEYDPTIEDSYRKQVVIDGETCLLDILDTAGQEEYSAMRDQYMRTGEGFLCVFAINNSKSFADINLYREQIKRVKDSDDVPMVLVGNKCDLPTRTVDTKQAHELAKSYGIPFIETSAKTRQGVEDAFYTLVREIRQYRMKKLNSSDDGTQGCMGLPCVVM
Sequence of NRAS G12C (P62937 whole entry): as the sequence (P62937 whole entry) above
Sequence of KRAS WT (P01116 1-169 isoform P01116-2 limits assumed): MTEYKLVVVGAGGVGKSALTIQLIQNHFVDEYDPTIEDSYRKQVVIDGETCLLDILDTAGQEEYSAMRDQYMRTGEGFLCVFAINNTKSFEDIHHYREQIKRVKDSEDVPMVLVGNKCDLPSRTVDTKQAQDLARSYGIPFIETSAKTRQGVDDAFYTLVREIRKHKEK
Sequence of KRAS WT (P62937 whole entry): as the sequence (P62937 whole entry) above
Sequence of KRAS G12S (P01116 1-169 isoform P01116-2 G12S limits assumed): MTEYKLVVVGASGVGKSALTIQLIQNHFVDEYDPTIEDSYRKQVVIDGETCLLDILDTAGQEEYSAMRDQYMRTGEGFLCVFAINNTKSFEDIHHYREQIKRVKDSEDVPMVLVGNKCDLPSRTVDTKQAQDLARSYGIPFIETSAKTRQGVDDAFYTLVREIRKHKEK
Sequence of KRAS G12S (P62937 whole entry): as the sequence (P62937 whole entry) above

On to `CCn1c(-c2cccnc2[C@H](C)OC)c2c3cc(ccc31)-c1cc(O)cc(c1)C[C@H](NC(=O)[C@H](C(C)C)N(C)C(=O)[C@H]1CCN(C(=O)C#CCN3CCOCC3)C1)C(=O)N1CCC[C@H](N1)C(=O)OCC(C)(C)C2` [Example A182], for which the pEC50 in experiment [1] (setting [11]) is above 5.30. Besides, the negative logarithm of the IC50 (pIC50) is 7.00 to 8.00 in experiment [2]; 7.00 to 8.00 and > 8.00 in experiment [3]; 5.00 to 6.00 and < 5.00 in [4]; 6.00 to 7.00 and 5.00 to 6.00 in experiment [5]; 6.00 to 7.00 and 5.00 to 6.00 in experiment [6]; 5.00 to 6.00 and 7.00 to 8.00 in experiment [7]. For the same compound, the pIC50 in experiment [8] is 6.00 to 7.00 and 5.00 to 6.00; in [9], 6.00 to 7.00 and 5.00 to 6.00; in experiment [10], 7.00 to 8.00 and > 8.00.

In the case of `C=CC(=O)N1CC(NC[C@H](C(=O)N[C@H]2Cc3cc(O)cc(c3)-c3ccc4c(c3)c(c(-c3cccnc3COC)n4CC)CC(C)(C)COC(=O)[C@@H]3CCCN(N3)C2=O)C(C)C)C1` [Example A174], the pEC50 in [1] (setting [11]) is above 5.30. The pIC50 is below 6.00 in experiment [2]; 6.00 to 7.00 in [3]; below 5.00 in experiment [4]; below 5.00 in [5]; below 5.00 in experiment [6]; 5.00 to 6.00 in experiment [7]. The pIC50 in experiment [8] was below 5.00; in [9] it was below 5.00; in experiment [10], 5.00 to 6.00.

Consider `C=CC(=O)N1CC[C@H](C(=O)N(C)[C@H](C(=O)N[C@H]2Cc3cc(O)cc(c3)-c3ccc4c(c3)c(c(-c3ccc5c(c3)CN(C)C5)n4CC)CC(C)(C)COC(=O)[C@@H]3CCCN(N3)C2=O)C(C)C)C1` [Example A212], for which, in experiment [1] (setting [11]), the pEC50 is above 5.30. Also, the pIC50 in experiment [3] was 6.00 to 7.00 and 5.00 to 6.00; in experiment [4], below 5.00; in [5], 5.00 to 6.00 and < 5.00; in [6], 5.00 to 6.00 and < 5.00; in experiment [7], 5.00 to 6.00 and < 5.00; in experiment [8], 5.00 to 6.00 and < 5.00. In addition, the pIC50 was 5.00 to 6.00 and < 5.00 in experiment [9]; 6.00 to 7.00 and 5.00 to 6.00 in experiment [10].

For the compound `CCn1c(-c2cccnc2[C@H](C)OC)c2c3cc(ccc31)-c1cccc(c1)C[C@H](NC(=O)[C@H](C(C)C)N(C)C(=O)[C@H]1CCN(C(=O)C#CC3CC(F)(F)CN3C)C1)C(=O)N1CCC[C@H](N1)C(=O)OCC(C)(C)C2` (stereo partly drawn) [Example A526], the negative-log EC50 (pEC50) in [1] (setting [11]) was above 5.30. For the same compound, the negative logarithm of the IC50 (pIC50) in experiment [2] is above 8.00; in experiment [3], 7.00 to 8.00; in experiment [4], below 5.00; in experiment [5], 5.00 to 6.00; in [6] it was 5.00 to 6.00; in experiment [7], 5.00 to 6.00. In addition, the pIC50 in experiment [8] is below 5.00; in experiment [9] it was 5.00 to 6.00; in [10], 7.00 to 8.00.

In the case of `CCn1c(-c2cccnc2[C@H](C)OC)c2c3cc(ccc31)-c1cccc(c1)C[C@H](NC(=O)[C@H](C(C)C)N1CC[C@@]3(CCN(C(=O)C#C[C@@H]4COCCN4C4COC4)C3)C1=O)C(=O)N1CCC[C@H](N1)C(=O)OCC(C)(C)C2` [Example A566], the pEC50 in [1] (setting [11]) was above 5.30. Also, the pIC50 in [2] is above 8.00.

For `C=CC(=O)N1CC[C@H](C(=O)N(C)[C@H](C(=O)N[C@H]2Cc3cc(O)cc(c3)-c3ccc4c(c3)c(c(-c3cc(CN(C)C)cnc3COC)n4CC)CC(C)(C)COC(=O)[C@@H]3CCCN(N3)C2=O)C(C)C)C1` [Example A149], in experiment [1] (setting [11]), the negative-log EC50 (pEC50) is above 5.30. The negative-log IC50 (pIC50) was 7.00 to 8.00 in [2]; 7.00 to 8.00 in experiment [3]; 5.00 to 6.00 in experiment [4]; 6.00 to 7.00 in [5]; 6.00 to 7.00 in experiment [6]; 6.00 to 7.00 in experiment [7]. For the same compound, the figures for the pIC50 in experiment [8], in experiment [9] and in experiment [10] were 6.00 to 7.00, 6.00 to 7.00 and 7.00 to 8.00, respectively.

For `CC#CC(=O)N1CC[C@H](C(=O)N(C)[C@@H](C(=O)N[C@H]2Cc3cc(O)cc(c3)-c3ccc4c(c3)c(c(-c3cccnc3[C@H](C)OC)n4CC)CC(C)(C)COC(=O)[C@@H]3CCCN(N3)C2=O)C(C)C)C1` [Example A199], in [1] (NCI-H358, read-out: pERK EC50), the negative logarithm of the EC50 (pEC50) is above 5.30. In [2] (NCI-H358, read-out: Additional H358 Cell Viability assay data (K-Ras G12C, IC50, uM), H358, K-Ras G12C), the IC50 lay within 0.1 to 1 µM.

Consider `C=CC(=O)N1CCC(C(=O)N(C)C(C(=O)NC2Cc3nc(cs3)-c3ccc4c(c3)c(c(-c3cccnc3C(C)OC)n4CC)CC(C)(C)COC(=O)C3CCCN(N3)C2=O)C(C)C)C1` (stereo not drawn) [Example A279], for which the negative-log EC50 (pEC50) in experiment [1] (setting [11]) was above 5.30. The 50% inhibitory concentration (IC50) is 1 µM to 10 µM and > 10 µM (2×) in experiment [3]; 1 µM to 10 µM and > 10 µM (2×) in experiment [7]; 1 µM to 10 µM and > 10 µM (2×) in experiment [10]. Moreover, the pIC50 in experiment [4], in experiment [5], in experiment [6], in experiment [8] and in experiment [9] was below 5.00 each time.

Turning to `CCn1c(-c2cccnc2[C@H](C)OC)c2c3cc(ccc31)-c1cccc(c1)C[C@H](NC(=O)[C@H](C(C)C)N(C)C(=O)[C@H]1CCN(C(=O)C#C[C@@H]3CCO3)C1)C(=O)N1CCC[C@H](N1)C(=O)OCC(C)(C)C2` [Example A509], in experiment [1] (setting [11]), the pEC50 was above 5.30. In addition, the pIC50 in experiment [2] and in [10] was above 8.00 in each case.

For the compound `C=CC(=O)N1CC[C@H](C(=O)N(C)[C@H](C(=O)N[C@H]2Cc3cccc(c3)-c3ccc4c(c3)c(c(-c3cccnc3COC)n4CC)CC(C)(C)COC(=O)[C@@H]3CCCN(N3)C2=O)C(C)C)C1` [Example A65], the negative-log EC50 (pEC50) in experiment [1] (setting [11]) was above 5.30. In addition, the negative logarithm of the IC50 (pIC50) in [2] was 6.00 to 7.00.

`CCn1c(-c2cccnc2[C@H](C)OC)c2c3cc(ccc31)-c1cccc(n1)C[C@H](NC(=O)[C@H](C(C)C)N1CC[C@@]3(CCN(C(=O)C#C[C@@H]4COCCN4C)C3)C1)C(=O)N1CCC[C@H](N1)C(=O)OCC(C)(C)C2` [Example A549]: the negative-log EC50 (pEC50) in [1] (setting [11]) is above 5.30. Also, the pIC50 in [2] was above 8.00.
